Test results as given in patent US5130300A, “Method for enhancing growth of mammary parenchyma” (Monsanto Company, priority 1987, dated 1992).

Key:
[1] = test system: Quarter-Udders in Pregnant Beef Cattle; test: Intramammary infusion of prostaglandin E1 or E2, quarter-udder weights and DNA (Examples 25-28); format: in vivo, cross-bred beef cows; settings: for DNA, % Increase, (A-B)/B / DNA, Mean Increase (A-B) / Dry Weight, % Increase, (A-B)/B / Dry Weight, Mean Increase (A-B) / Wet Weight, % Increase, (A-B)/B / Wet Weight, Mean Increase (A-B) / Dry Fat-Free Weight, % Increase, (A-B)/B / Dry Fat-Free Weight, Mean Increase (A-B): B = excipient only
Description: 24 pregnant, non-lactating, cross-bred beef cows in their last 45-105 days of gestation were housed in a free-stall facility, fed a ration of alfalfa hay and pelleted concentrate, and administered 5 ml of an excepient (MCT-Oil, a Mead Johnson Corp. medium chain triglyceride which is a lipid fraction of coconut oil consisting primarily of triglycerides of C8 and C10 fatty acids as follows: C8 -67%; C10 -23%; <C8 -6%; >C10 -4%) into each quarter-udder by intramammary infusion through the streak cannal on days 1, 3, 5, 7 and 9 of this study. The 48 front and rear udder halves were randomly divided into 4 groups, with one quarter of each udder half treated and its laterally opposite quarter-udder used as a control. In the treatment infusions, the excipient contained Prostaglandin (PG) E1 or E2 from Sigma Chemical Co., St. Louis, Mo. (Catalog Nos. 86F-0406 and -0404). The amounts of PG in each infusion were: Group 1-87.5 micrograms of E2; Group 2-875 micrograms of E2; Group 3-87.5 micrograms of E1; Group 4-875 micrograms of E1. Animals were prepared and infused as in Examples 23-24; the effects were determined as in Examples 1-2. Results for Groups 1-4 are in Tables 15-18, respectively.

[2] = test system: Quarter-Udders in Pregnant Beef Cows; test: Intramammary infusion of hEGF or mEGF, quarter-udder weights and DNA (Examples 1-2); format: in vivo, cross-bred beef cows; settings: 25 micrograms per infusion, days 1,3,5,7,9, Freund's emulsion
Description: 12 pregnant, non-lactating, cross-bred beef cows within their last 40-80 days of gestation were housed in a free-stall facility, fed a ration of alfalfa hay and pelleted concentrate, and administered 10 ml of an excipient (Freund's Incomplete Adjuvant emulsified with an equal volume of 0.9% sterile saline) into each quarter-udder by intramammary infusion through the streak canal on days 1, 3, 5, 7 and 9 of this study. Infusions were carried out using a 3.2 centimeter long, approximately 12 gauge, blunt-tipped plastic teat infusion cannula obtained from Jorgensen Laboratories, Loveland, Colo. Because front and rear udder halves are not of equal size, treatment vs. control comparisons were made between laterally opposite quarters, i.e., front right vs. front left and rear right vs. rear left. Treatments were randomly assigned to right or left udder-halves, with the contralateral half serving as its control. […] (the other 6 animals).
Prior to treatment, each animal was teatdipped for 3 consecutive days and each teat was pre-cleaned with 70% ethanol in water on the day of treatment. On day 14 the cows were sacrificed and their mammary glands excised. Each udder (milked out if necessary) was skinned, divided along the median suspensory ligament and then into front right, front left, rear right and rear left udder quarters. Each quarter-udder was ground, a representative 200 gm sample was homogenized with 4 times its volume of water, and the total homogenate volume of each was measured.
To determine dry weight of each quarter-udder, three 10 ml aliquots of a 1:5 diluted homogenate were placed in pre-weighed pans, dried overnight at 60° and then dried and weighed to a consistent value.
To determine dry fat-free tissue weight of each quarter-udder, three 5 ml aliquots of the undiluted homogenate were extracted by the method of Anderson, 41 J. Anim. Sci. 118 (1975) except that samples were placed in pre-weighed 25×150 mm glass centrifuge tubes and extracted overnight with 10 ml ethanol:ether (3:1), then centrifuged (5 min at 500 rpm) and the supernatant aspirated; an additional 10 ml aliquot of ethanol:ether was added for a second extraction; and the sample was dried under nitrogen until a consistent value was obtained.
DNA in each quarter-udder was determined by the method of Burton, 12B Methods in Enzymol. 163-66 (1968) using an assay solution of 15% trichloroacetic acid (TCA) in 2N HCl. In these determinations, aliquots of gland homogenate were diluted 1:5 with water and rehomogenized. Using triplicate 0.25 ml or 0.5 ml aliquots of these homogenates, each aliquot was mixed with 2 ml of the assay solution. After 30 min, the samples were centrifuged for 10 min at 3000 rpm and the resulting pellets were washed with 2 ml of a 10% solution of TCA in distilled water. After recentrifugation, the resulting pellets were disrupted in 2 ml of 0.5N perchloric acid and heated for 30 min at 70° to extract DNA. Samples were centrifuged and 1 ml of each resulting supernatant was placed in a 12×75 mm tube. After addition of 2 ml of a solution of 1.5 g diphenylamine and 1.5 ml H2 SO4 in 100 ml glacial acetic acid (and 0.1 ml of 1.6% aqueous acetaldehyde per 20 ml reagent just prior to use), the samples were vortexed and incubated overnight at 27°. Calf thymus DNA was the standard.

[3] = total of 0.4375 milligrams (87.5 micrograms per infusion) in MCT-Oil
[4] = total of 0.4375 milligrams in MCT-Oil
[5] = total of 4.375 milligrams (875 micrograms per infusion) in MCT-Oil
[6] = total of 4.375 milligrams in MCT-Oil
[7] = B = opposite quarter, excipient only

Q: What does the source list for CCCCC[C@H](O)/C=C/[C@H]1[C@H](O)CC(=O)[C@@H]1CCCCCCC(=O)O [Prostaglandin E1, [11α,13E,15S]-11,15-Dihydroxy-9-oxoprost-13-en-1-oic acid]?
A: DNA, Treatment Mean [1, 3]: 2881 mg; Dry Fat-Free Weight, Treatment Mean [1, 3]: 180.9 g; Dry Weight, Treatment Mean [1, 3]: 259.3 g; Wet Weight, Treatment Mean [1, 3]: 972.5 g; DNA, % Increase, (A-B)/B [1, 4]: 26%; DNA, Mean Increase (A-B) [1, 4]: 597 mg; Dry Weight, % Increase, (A-B)/B [1, 4]: 23.0%; Dry Weight, Mean Increase (A-B) [1, 4]: 48.7 g; Wet Weight, % Increase, (A-B)/B [1, 4]: 25.0%; Wet Weight, Mean Increase (A-B) [1, 4]: 194.5 g; DNA, Treatment Mean [1, 5]: 4218 mg; Dry Fat-Free Weight, Treatment Mean [1, 5]: 247.7 g; Dry Weight, Treatment Mean [1, 5]: 379.6 g; Wet Weight, Treatment Mean [1, 5]: 1435.5 g; DNA, % Increase, (A-B)/B [1, 6]: 51.1%; DNA, Mean Increase (A-B) [1, 6]: 1426 mg; Dry Fat-Free Weight, % Increase, (A-B)/B [1, 6]: 31.0%; Dry Fat-Free Weight, Mean Increase (A-B) [1, 6]: 58.7 g; Dry Weight, % Increase, (A-B)/B [1, 6]: 41.5%; Dry Weight, Mean Increase (A-B) [1, 6]: 111.4 g; Wet Weight, % Increase, (A-B)/B [1, 6]: 51.2%; Wet Weight, Mean Increase (A-B) [1, 6]: 486.2 g

Q: CCCCC[C@H](O)/C=C/[C@H]1[C@H](O)CC(=O)[C@@H]1C/C=C\CCCC(=O)O [Prostaglandin E2, [5Z,11α,13E,15S]-11,15-Dihydroxy-9-oxoprosta-5,13-dien-1-oic acid] was tested. Which “DNA, Treatment Mean” value [1, 3] did it give?
A: The value was 5203 mg.

Q: What about the “Dry Fat-Free Weight, Treatment Mean” value [1, 3] of the same compound?
A: Its value is 351.8 g.

Q: What about the “Dry Weight, Treatment Mean” value [1, 3] of the same compound?
A: The value was 525.5 g.

Q: What about the “Wet Weight, Treatment Mean” value [1, 3] of the same compound?
A: Its value is 1966.9 g.

Q: What about the “DNA, % Increase, (A-B)/B” value [1, 4] of the same compound?
A: The value was 10.1%.

Q: And the “DNA, Mean Increase (A-B)” value [1, 4]?
A: The value was 479 mg.

Q: And the “Dry Fat-Free Weight, % Increase, (A-B)/B” value [1, 4]?
A: The value was 18.1%.

Q: What about the “Dry Fat-Free Weight, Mean Increase (A-B)” value [1, 4] of the same compound?
A: The value was 54.0 g.

Q: And the “Dry Weight, % Increase, (A-B)/B” value [1, 4]?
A: Its value is 8.3%.

Q: And the “Dry Weight, Mean Increase (A-B)” value [1, 4]?
A: Its value is 40.6 g.

Q: And the “Wet Weight, % Increase, (A-B)/B” value [1, 4]?
A: Its value is 13.3%.

Q: What about the “Wet Weight, Mean Increase (A-B)” value [1, 4] of the same compound?
A: Its value is 231.4 g.

Q: What about the “DNA, Treatment Mean” value [1, 5] of the same compound?
A: Its value is 3397 mg.

Q: What about the “Dry Fat-Free Weight, Treatment Mean” value [1, 5] of the same compound?
A: The value was 194.5 g.

Q: What about the “Dry Weight, Treatment Mean” value [1, 5] of the same compound?
A: Its value is 312.7 g.

Q: What about the “Wet Weight, Treatment Mean” value [1, 5] of the same compound?
A: Its value is 1030.8 g.

Q: And the “DNA, % Increase, (A-B)/B” value [1, 6]?
A: The value was 44.6%.

Q: What about the “DNA, Mean Increase (A-B)” value [1, 6] of the same compound?
A: Its value is 1049 mg.

Q: And the “Dry Fat-Free Weight, % Increase, (A-B)/B” value [1, 6]?
A: The value was 34.8%.

Q: What about the “Dry Fat-Free Weight, Mean Increase (A-B)” value [1, 6] of the same compound?
A: The value was 50.2 g.

Q: And the “Dry Weight, % Increase, (A-B)/B” value [1, 6]?
A: Its value is 42.8%.

Q: What about the “Dry Weight, Mean Increase (A-B)” value [1, 6] of the same compound?
A: Its value is 93.7 g.

Q: And the “Wet Weight, % Increase, (A-B)/B” value [1, 6]?
A: The value was 38.9%.

Q: And the “Wet Weight, Mean Increase (A-B)” value [1, 6]?
A: The value was 288.8 g.

Q: For “mEGF: mouse EGF, culture-grade, from mouse submaxillary glands, Collaborative Research Corp. Catalog No. 40001 (NSYPGCPSSYDGYCLNGGVCMHIESLDSYTCNCVIGYSGDRCQTRDLRWWELR; not fully specified; Epidermal growth factor; UniProt P01132 977-1029, looked up)”, which “DNA, % Increase, (A-B)/B” value [2, 7] is on record?
A: Its value is 13.8%.

Q: What about the “DNA, Mean Increase (A-B)” value [2, 7] of the same compound?
A: The value was 110.2 mg.

Q: What about the “Dry Fat-Free Weight, % Increase, (A-B)/B” value [2, 7] of the same compound?
A: The value was 7.9%.

Q: And the “Dry Fat-Free Weight, Mean Increase (A-B)” value [2, 7]?
A: Its value is 5.0 g.

Q: What about the “Dry Weight, % Increase, (A-B)/B” value [2, 7] of the same compound?
A: The value was 1.6%.

Q: And the “Dry Weight, Mean Increase (A-B)” value [2, 7]?
A: The value was 2.3 g.

Q: What about the “Wet Weight, % Increase, (A-B)/B” value [2, 7] of the same compound?
A: The value was 4.4%.

Q: And the “Wet Weight, Mean Increase (A-B)” value [2, 7]?
A: The value was 17.6 g.

Q: And the “DNA, Treatment Mean” value ([2]; day 14)?
A: The value was 905.1 mg.

Q: And the “Dry Fat-Free Weight, Treatment Mean” value ([2]; day 14)?
A: The value was 69.6 g.

Q: And the “Dry Weight, Treatment Mean” value ([2]; day 14)?
A: Its value is 150.2 g.

Q: What about the “Wet Weight, Treatment Mean” value ([2]; day 14) of the same compound?
A: The value was 419.6 g.

Q: What about the “DNA, Avg % Increase/Animal” value ([2]; vs excipient-only quarter) of the same compound?
A: The value was 12.0%.

Q: And the “Dry Fat-Free Weight, Avg % Increase/Animal” value ([2]; vs excipient-only quarter)?
A: The value was 5.2%.

Q: What about the “Dry Weight, Avg % Increase/Animal” value ([2]; vs excipient-only quarter) of the same compound?
A: Its value is 2.1%.

Q: What about the “Wet Weight, Avg % Increase/Animal” value ([2]; vs excipient-only quarter) of the same compound?
A: The value was 1.8%.
